Where two headings read alike, the source gives them in different places.
What was measured:
OX1 = target: T1, OX1 (Homo sapiens, UniProt O43613); assay: Measurement of orexin receptor-binding ability ([125I]-OX-A, cell membranes, OX1); design: expressed in transfected cells; host or cells: CHO cells (membrane preparation)
T1 sequence (O43613 1-425): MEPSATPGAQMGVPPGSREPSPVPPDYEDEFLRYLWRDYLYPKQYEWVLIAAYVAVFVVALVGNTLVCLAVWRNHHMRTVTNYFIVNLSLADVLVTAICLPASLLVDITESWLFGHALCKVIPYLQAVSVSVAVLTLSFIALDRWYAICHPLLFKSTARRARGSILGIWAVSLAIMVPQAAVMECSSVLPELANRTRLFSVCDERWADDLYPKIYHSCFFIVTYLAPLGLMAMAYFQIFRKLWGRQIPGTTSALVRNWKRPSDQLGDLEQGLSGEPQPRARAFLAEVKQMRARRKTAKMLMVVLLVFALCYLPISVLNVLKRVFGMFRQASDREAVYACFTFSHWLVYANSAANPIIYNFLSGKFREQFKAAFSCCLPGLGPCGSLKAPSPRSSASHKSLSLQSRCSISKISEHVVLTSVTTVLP

OX2 = target: T2, OX2 (Homo sapiens, UniProt O43614); assay: Measurement of orexin receptor-binding ability ([125I]-OX-A, cell membranes, OX2); design: expressed in transfected cells; host or cells: CHO cells (membrane preparation); conditions: membranes of recombinant CHO cells expressing OX2, 0.2 nM [125I]-OX-A
T2 sequence (O43614 1-444): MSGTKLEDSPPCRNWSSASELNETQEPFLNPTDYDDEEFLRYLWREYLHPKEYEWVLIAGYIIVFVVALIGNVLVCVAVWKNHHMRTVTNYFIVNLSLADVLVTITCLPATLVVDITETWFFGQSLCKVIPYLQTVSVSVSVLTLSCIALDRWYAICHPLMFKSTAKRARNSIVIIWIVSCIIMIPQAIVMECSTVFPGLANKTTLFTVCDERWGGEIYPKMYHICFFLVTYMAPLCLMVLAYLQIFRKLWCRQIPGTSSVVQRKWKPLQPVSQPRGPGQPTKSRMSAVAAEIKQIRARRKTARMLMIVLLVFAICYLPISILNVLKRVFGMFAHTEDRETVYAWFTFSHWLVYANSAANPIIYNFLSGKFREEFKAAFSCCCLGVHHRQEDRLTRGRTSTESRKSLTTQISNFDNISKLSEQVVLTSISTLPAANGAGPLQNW

[1] = membranes of recombinant CHO cells expressing OX1, 0.2 nM [125I]-OX-A, read-out: OX1 (IC50)

Cc1ncc(OC[C@@]2(c3ccccc3)C[C@H]2C(=O)Nc2ccc(Cl)cc2)c(C)n1 [Example 25]
IC50 (OX1; [1]): 927 nM
IC50 (OX2; read-out: OX2 (IC50)): 59 nM

Cc1ncc(OC[C@@]2(c3cc(F)cc(F)c3)C[C@H]2C(=O)Nc2ccccn2)c(C)n1 [Example 131, (1R,2S)-2-(3,5-difluorophenyl)-2-{[(2,4-dimethylpyrimidin-5-yl)oxy]methyl}-N-(pyridin-2-yl)cyclopropanecarboxamide]
IC50 (OX1): 89 nM
IC50 (OX2; OX2 (IC50) nM): 5 nM

Cc1ncc(OCC2(c3ccccc3Cl)CC2C(=O)Nc2ccc(F)cn2)c(C)n1 (stereo not drawn) [Example 151]
IC50 (OX1): 102 nM
IC50 (OX2; OX2 (IC50) nM): 25 nM

Cc1ccnc(NC(=O)[C@@H]2C[C@@]2(COc2cnc(C)nc2C)c2ccccc2)c1 [Example 47]
IC50 (OX1; [1]): 228 nM
IC50 (OX2; read-out: OX2 (IC50)): 29 nM

Cc1ncc(OCC2(c3ccc(Cl)cc3)CC2C(=O)Nc2ccc(Cl)cn2)c(C)n1 (stereo not drawn) [Example 158]
IC50 (OX1; [1]): 180 nM
IC50 (OX2; read-out: OX2 (IC50)): 27 nM

Cc1ncc(OC[C@@]2(c3ccccc3)C[C@H]2C(=O)Nc2cc(F)cc(C#N)c2)c(C)n1 [Example 34]
IC50 (OX1): 430 nM
IC50 (OX2; OX2 (IC50) nM): 18 nM

Cc1ncc(OC[C@@]2(c3ccccc3)C[C@H]2C(=O)Nc2cccc(-c3nnc[nH]3)c2)c(C)n1 [Example 38]
IC50 (OX1; [1]): 518 nM
IC50 (OX2; read-out: OX2 (IC50)): 29 nM

Cc1ncc(OC[C@@]2(c3cccc(F)c3)C[C@H]2C(=O)Nc2cnc(F)c(C)c2)c(C)n1 [Example 91]
IC50 (OX1): 215 nM
IC50 (OX2; OX2 (IC50) nM): 22 nM

CCc1nc(C)ncc1OC[C@@]1(c2cccc(F)c2)C[C@H]1C(=O)Nc1ccc(F)cn1 [Example 241, (1R,2S)-2-{[(4-ethyl-2-methylpyrimidin-5-yl)oxy]methyl}-2-(3-fluorophenyl)-N-(5-fluoropyridin-2-yl)cyclopropanecarboxamide]
IC50 (OX1): 2 nM
IC50 (OX2; OX2 (IC50) nM): 2.2 nM

Cc1ncc(N(C)C[C@@]2(c3cccc(F)c3)C[C@H]2C(=O)Nc2ccc(F)c(F)c2)c(C)n1 [Example 296]
IC50 (OX1; [1]): > 200 nM
IC50 (OX2; read-out: OX2 (IC50)): 8 nM

Cc1ncc(OC[C@@]2(c3ccccc3)C[C@H]2C(=O)Nc2nc(C)c(C)s2)c(C)n1 [Example 4]
IC50 (OX1; [1]): 55 nM
IC50 (OX2; read-out: OX2 (IC50)): 38 nM

Cc1ncc(N(C)C[C@@]2(c3cccc(F)c3)C[C@H]2C(=O)Nc2cc(C)c(Cl)cn2)c(C)n1 [Example 295, (1R,2S)-N-(5-chloro-4-methylpyridin-2-yl)-2-[N-(2,4-dimethylpyrimidin-5-yl)methylaminomethyl]-2-(3-fluorophenyl)cyclopropanecarboxamide]
IC50 (OX1; [1]): 5 nM
IC50 (OX2; read-out: OX2 (IC50)): 6 nM

Cc1ncc(OC[C@@]2(c3ccccc3)C[C@H]2C(=O)Nc2cccc(F)c2)c(C)n1 [Example 79]
IC50 (OX1): 90 nM
IC50 (OX2; OX2 (IC50) nM): 26 nM

COCc1nc(C)ncc1OC[C@@]1(c2cccc(F)c2)C[C@H]1C(=O)Nc1ccc(Cl)cn1 [Example 198, (1R,2S)-N-(5-chloropyridin-2-yl)-2-(3-fluorophenyl)-2-{[(4-methoxymethyl-2-methylpyrimidin-5-yl)oxy]methyl}cyclopropanecarboxamide]
IC50 (OX1): 5 nM
IC50 (OX2; OX2 (IC50) nM): 4 nM

Cc1ncc(OC[C@@]2(c3ccc(F)c(F)c3)C[C@H]2C(=O)Nc2ccc(F)cc2)c(C)n1 [Example 165, (1R,2S)-2-(3,4-difluorophenyl)-2-{[(2,4-dimethylpyrimidin-5-yl)oxy]methyl}-N-(4-fluorophenyl)cyclopropanecarboxamide]
IC50 (OX1; [1]): 29 nM
IC50 (OX2; read-out: OX2 (IC50)): 7 nM

Cc1ncc(OCC2(c3ccccc3F)CC2C(=O)Nc2cccnc2)c(C)n1 (stereo not drawn) [Example 276]
IC50 (OX1): 3210 nM
IC50 (OX2; OX2 (IC50) nM): 76 nM

COc1cc(NC(=O)[C@@H]2C[C@@]2(COc2cnc(C)nc2C)c2ccccc2)cnc1F [Example 327, (1R,2S)-2-{[(2,4-dimethylpyrimidin-5-yl)oxy]methyl}-N-(6-fluoro-5-methoxypyridin-3-yl)-2-phenylcyclopropanecarboxamide]
IC50 (OX1; [1]): 192 nM
IC50 (OX2; read-out: OX2 (IC50)): 3 nM

CCc1nc(C)ncc1OC[C@@]1(c2ccc(F)cc2)C[C@H]1C(=O)Nc1ccccn1 [Example 245, (1R,2S)-2-{[(4-ethyl-2-methylpyrimidin-5-yl)oxy]methyl}-2-(4-fluorophenyl)-N-(pyridin-2-yl)cyclopropanecarboxamide]
IC50 (OX1): 64 nM
IC50 (OX2; OX2 (IC50) nM): 10 nM

CCc1nc(C)ncc1OC[C@@]1(c2ccccc2)C[C@H]1C(=O)Nc1ccccn1 [Example 118, (1R,2S)-2-{[(4-ethyl-2-methylpyrimidin-5-yl)oxy]methyl}-2-phenyl-N-(pyridin-2-yl)cyclopropanecarboxamide]
IC50 (OX1; [1]): 342 nM
IC50 (OX2; read-out: OX2 (IC50)): 24 nM

Cc1ncc(OCC2(c3ccccc3F)CC2C(=O)Nc2ccc(Cl)cn2)c(C)n1 (stereo not drawn) [Example 262]
IC50 (OX1): 85 nM
IC50 (OX2; OX2 (IC50) nM): 51 nM

Cc1ncc(CC[C@@]2(c3ccccc3)C[C@H]2C(=O)Nc2cc(C)c(F)cn2)c(C)n1 [Example 292, (1R,2R)-2-[2-(2,4-dimethylpyrimidin-5-yl)ethyl]-N-(5-fluoro-4-methylpyridin-2-yl)-2-phenylcyclopropanecarboxamide]
IC50 (OX1; [1]): 240 nM
IC50 (OX2; read-out: OX2 (IC50)): 34 nM

Cc1ncc(OC[C@@]2(c3cc(F)cc(F)c3)C[C@H]2C(=O)Nc2ccc(F)cc2F)c(C)n1 [Example 135, (1R,2S)-N-(2,4-difluorophenyl)-2-(3,5-difluorophenyl)-2-{[(2,4-dimethylpyrimidin-5-yl)oxy]methyl}cyclopropanecarboxamide]
IC50 (OX1; [1]): 14 nM
IC50 (OX2; read-out: OX2 (IC50)): 8 nM

Cc1ncc(OCC2(c3cccc(F)c3)CC2C(=O)Nc2cccnc2)c(C)n1 (stereo not drawn) [Example 99]
IC50 (OX1): 644 nM
IC50 (OX2; OX2 (IC50) nM): 58 nM

COc1cncc(NC(=O)[C@@H]2C[C@@]2(COc2cnc(C)nc2C)c2ccc(F)cc2)c1 [Example 112]
IC50 (OX1; [1]): 1020 nM
IC50 (OX2; read-out: OX2 (IC50)): 18 nM

Cc1ncc(OC[C@@]2(c3cc(F)cc(F)c3)C[C@H]2C(=O)Nc2ccc(Cl)cn2)c(C)n1 [Example 132, (1R,2S)-N-(5-chloropyridin-2-yl)-2-(3,5-difluorophenyl)-2-{[(2,4-dimethylpyrimidin-5-yl)oxy]methyl}cyclopropanecarboxamide]
IC50 (OX1): 18 nM
IC50 (OX2; OX2 (IC50) nM): 4 nM

CCc1nc(C)ncc1OC[C@@]1(c2ccc(F)cc2)C[C@H]1C(=O)Nc1ccc(F)cn1 [Example 246, (1R,2S)-2-{[(4-ethyl-2-methylpyrimidin-5-yl)oxy]methyl}-2-(4-fluorophenyl)-N-(5-fluoropyridin-2-yl)cyclopropanecarboxamide]
IC50 (OX1): 16 nM
IC50 (OX2; OX2 (IC50) nM): 4 nM

COCc1nc(C)ncc1OC[C@@]1(c2ccc(F)cc2)C[C@H]1C(=O)Nc1ccc(F)cn1 [Example 202, (1R,2S)-2-(4-fluorophenyl)-N-(5-fluoropyridin-2-yl)-2-{[(4-methoxymethyl-2-methylpyrimidin-5-yl)oxy]methyl}cyclopropanecarboxamide]
IC50 (OX1): 14 nM
IC50 (OX2; OX2 (IC50) nM): 2 nM

COCc1cc(NC(=O)[C@@H]2C[C@@]2(COc2cnc(C)nc2C)c2cccc(F)c2)ncc1F [Example 86, (1R,2S)-2-{[(2,4-dimethylpyrimidin-5-yl)oxy]methyl}-N-(5-fluoro-4-methoxymethylpyridin-2-yl)-2-(3-fluorophenyl)cyclopropanecarboxamide]
IC50 (OX1): 6.3 nM
IC50 (OX2; OX2 (IC50) nM): 6.1 nM

Cc1ncc(OC[C@@]2(c3ccccc3)C[C@H]2C(=O)Nc2cc(C(F)(F)F)ccn2)c(C)n1 [Example 10]
IC50 (OX1; [1]): 228 nM
IC50 (OX2; read-out: OX2 (IC50)): 31 nM

COc1cccc([C@]2(COc3cnc(C)nc3C)C[C@H]2C(=O)Nc2cc(C)c(F)cn2)c1 [Example 189, (1R,2S)-2-{[(2,4-dimethylpyrimidin-5-yl)oxy]methyl}-N-(5-fluoro-4-methylpyridin-2-yl)-2-(3-methoxyphenyl)cyclopropanecarboxamide]
IC50 (OX1; [1]): 7 nM
IC50 (OX2; read-out: OX2 (IC50)): 4.1 nM

Cc1ncc(OC[C@@]2(c3ccccc3)C[C@H]2C(=O)Nc2ccc(Cl)c(C#N)c2)c(C)n1 [Example 27]
IC50 (OX1; [1]): 169 nM
IC50 (OX2; read-out: OX2 (IC50)): 15 nM

Cc1ncc(OCC2(c3ccccc3C)CC2C(=O)Nc2ccc(F)cn2)c(C)n1 (stereo not drawn) [Example 179]
IC50 (OX1): 167 nM
IC50 (OX2; OX2 (IC50) nM): 29 nM

CCc1nc(C)ncc1OC[C@@]1(c2ccc(F)cc2)C[C@H]1C(=O)Nc1cc(C)c(F)cn1 [Example 248, (1R,2S)-2-{[(4-ethyl-2-methylpyrimidin-5-yl)oxy]methyl}-N-(5-fluoro-4-methylpyridin-2-yl)-2-(4-fluorophenyl)cyclopropanecarboxamide]
IC50 (OX1; [1]): 10 nM
IC50 (OX2; read-out: OX2 (IC50)): 3 nM

Reference: US8268848B2, “Cyclopropane compound” (Eisai R&D Management Co., Ltd., priority 2010, dated 2012)
